From BindingDB's records for PubMed 39369482 (Univ. Lille)

Molecular target: Insulin-regulated aminopeptidase (Homo sapiens)
Experiment: Inhibition of recombinant human IRAP using L-AMC as substrate preincubated for 30 mins followed by substrate addition and measured after 1 hr by fluorescence based assay

Structure (SMILES) | IC50 [µM]
O=C(O)c1cccc(S(=O)(=O)N2CCCC2)c1 | 88.1
O=C1N=C(S)SC1=Cc1ccc(C(=O)O)cc1 | 40.9
O=C(NO)c1ccc(S(=O)(=O)N2CCCCC2)s1 | 60.3

Now those with a lower IC50, led by results:

IC50 [µM] | Structure (SMILES)
16.3 | O=C(Cc1ccc(S(=O)(=O)N2CCCCC2)s1)NO
15.1 | O=C(O)c1cccc(S(=O)(=O)N2CCC(F)CC2)c1
14.4 | O=C(O)c1cccc(S(=O)(=O)N2CCCCC2)c1
13.3 | CN1C(=O)SC(Cc2ccc(C(=O)O)cc2)C1=O (configuration not stated)
